# Assay results: paper PMC9646970 (Poultry Science, 2022)
# Read-outs that look alike come from different tables or passages of the source.
# Tests used:
# [1] = type: in vivo, broiler chickens; settings: single ENR administration (i.v. 10 mg/kg or p.o. 20 mg/kg) with or without CsA or AC
# [2] = cited from earlier work
# [3] = type: in vivo, broiler chickens
# [4] = Population pharmacokinetic analysis; type: in vivo, broiler chickens; settings: for AUC: geometric mean
# [5] = oral administration, same dose (20 mg/kg), ref Xiao et al., 2018
# [6] = population fixed effect, p.o. administration
structure (smiles),measurement,setting,value
"CCN1CCN(c2cc3c(cc2F)c(=O)c(C(=O)O)cn3C2CC2)CC1 [Enrofloxacin, enrofloxacin]",adverse effects,[1],No adverse effects were observed
same,oral bioavailability change with verapamil co-administration,"[2]; co-administered with the P-gp inhibitor verapamil, ref Guo et al., 2013",nearly doubled
same,AUC,"[2]; i.v. administration at 10 mg/kg, ref Atef et al., 2020",15200 ± 1080 ng·h/mL
same,AUC0-24h,[2]; [5],30.07 ± 4.64 µg/h/mL
same,Cmax,[2]; [5],2860 ± 520 ng/mL
same,AUC,"[3]; Ross hybrid (Cornish × Plymouth Rock), plasma, po, 20 mg/kg, AUC, enrofloxacin in plasma, enrofloxacin p.o. 20 mg/kg + cyclosporine A p.o. 50 mg/kg, geometric mean (min–max)",40400 ng·h/mL
same,Cmax,"[3]; Ross hybrid (Cornish × Plymouth Rock), plasma, po, 20 mg/kg, Cmax, enrofloxacin in plasma, enrofloxacin p.o. 20 mg/kg + cyclosporine A p.o. 50 mg/kg, geometric mean (min–max)",5620 ng/mL
same,Tmax,"[3]; Ross hybrid (Cornish × Plymouth Rock), plasma, po, 20 mg/kg, Tmax, enrofloxacin in plasma, enrofloxacin p.o. 20 mg/kg + cyclosporine A p.o. 50 mg/kg, geometric mean (min–max)",1.35 h
same,increase of AUC with CsA co-administration,[3]; enrofloxacin p.o. 20 mg/kg + CsA p.o. versus enrofloxacin p.o. alone,approx. 20%
same,AUC,"[4]; Ross hybrid (Cornish × Plymouth Rock), plasma, iv, 10 mg/kg, AUCi.v. – activated charcoal, enrofloxacin i.v. 10 mg/kg + activated charcoal p.o. 1 g/kg",13300 ng·h/mL
same,AUC,"[4]; Ross hybrid (Cornish × Plymouth Rock), plasma, iv, 10 mg/kg, AUCi.v. – cyclosporine A, enrofloxacin i.v. 10 mg/kg + cyclosporine A p.o. 50 mg/kg",16200 ng·h/mL
same,bioavailability,"[4]; Ross hybrid (Cornish × Plymouth Rock), plasma, po, 20 mg/kg",100%
same,AUC,"[4]; Ross hybrid (Cornish × Plymouth Rock), plasma, po, 20 mg/kg, AUCp.o. – control, enrofloxacin p.o. 20 mg/kg alone",31200 ng·h/mL
same,AUC,"[4]; Ross hybrid (Cornish × Plymouth Rock), plasma, po, 20 mg/kg, AUCp.o. – cyclosporine A, enrofloxacin p.o. 20 mg/kg + cyclosporine A p.o. 50 mg/kg",37400 ng·h/mL
same,lag time (time to pass the crop and the stomach to reach the absorption site),"[4]; p.o. administration, on average",3.24 min
same,βCl BW (covariate effect of body weight on clearance),"[4]; population fixed effect, log-normalized BW",0.77
same,tvTlag (typical value of lag time),[4]; [6],0.054 h
same,tvka (typical value of absorption rate constant),[4]; [6],1.26 h⁻¹
